Drawing on PubChem BioAssay (NCI), this text covers TGI and GI50 for 8 compounds.

Some test systems named below: DU-145 prostate; U251 CNS; NCI-H522 lung; CCRF-CEM leukemia; ACHN renal; MDA-MB-231 breast; NCI/ADR-RES ovarian; HCT-15 colon; SF-295 CNS; HOP-92 NSCLC.
Holding throughout (assay): NCI anticancer screen, dose series, 48 h

Each structure is given as a SMILES string.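 Protocol summary: plate cells (96-well), add compound at 5 concentrations, incubate 48 h, interpolate endpoints linearly. Abbreviation: GI50, concentration required for 50% inhibition of growth. TGI: concentration producing complete growth inhibition.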 Where only a bound is given, the exact number is not on record here.

As to `CC(C)Cc1ccc(C(C)/C=C2\CCC(CN(C)C)C2=O)cc1` (centres undefined), the TGI in the assay on DU-145 prostate stood at 23.6 µM; in the assay with U251 CNS, 30.4 µM; with NCI-H522 lung it was 15.2 µM; with CCRF-CEM leukemia it was 23.4 µM; in the assay with ACHN renal it was 38.1 µM; in the assay with MDA-MB-231 breast, 4.52 µM. In addition, the TGI is 24.3 µM in the assay on NCI/ADR-RES ovarian, 23.1 µM in the assay on HCT-15 colon, 28.6 µM in the assay with SF-295 CNS and 39.1 µM with HOP-92 NSCLC.
As for `CC(=O)NC1C(O[C@H]2C[C@H]3[C@@H]4CC=C5C[C@@H](O)CC[C@]5(C)[C@H]4CC[C@]3(C)[C@H]2[C@H](C)C(=O)CCC(C)C)OCC(O)C1O` (some centres undefined), the GI50 in the assay with DU-145 prostate is 5.89 µM; in the assay with U251 CNS it was 2.34 µM; in the assay with NCI-H522 lung, 8.72 µM; in the assay with CCRF-CEM leukemia, 1250 nM; in the assay with ACHN renal, 3.75 µM; in the assay on MDA-MB-231 breast, 3.29 µM. The GI50 with NCI/ADR-RES ovarian is 13.1 µM; in the assay with HCT-15 colon it was 4.38 µM; in the assay on SF-295 CNS, 500 nM; with HOP-92 NSCLC it was 5.1 µM. The TGI in the assay with DU-145 prostate was more than 42.5 µM; in the assay on U251 CNS, 11.5 µM; in the assay with NCI-H522 lung, 18.8 µM; with CCRF-CEM leukemia it was 4.15 µM; with ACHN renal it was more than 42.5 µM; with MDA-MB-231 breast it was 12.4 µM. Further, the TGI in the assay with NCI/ADR-RES ovarian was more than 42.5 µM; in the assay with HCT-15 colon, 10.5 µM; with SF-295 CNS, 1.23 µM; in the assay with HOP-92 NSCLC, 15.5 µM.
For the compound `Cc1cc(Cl)nc(N(CCNc2ccnc3cc(Cl)ccc23)Cc2ccco2)n1`, the GI50 in the assay on DU-145 prostate is 1.9 µM; in the assay on U251 CNS, 1.64 µM; in the assay with NCI-H522 lung, 1.76 µM; in the assay with CCRF-CEM leukemia, 1920 nM; in the assay with ACHN renal, 1.71 µM; in the assay on MDA-MB-231 breast, 1.85 µM. The GI50 with NCI/ADR-RES ovarian is 1.74 µM; with HCT-15 colon it was 1.61 µM; with SF-295 CNS, 1500 nM; with HOP-92 NSCLC, 1.2 µM. Further, the TGI is 3.8 µM with DU-145 prostate; 3.09 µM in the assay with U251 CNS; 3.61 µM with NCI-H522 lung; 5.04 µM in the assay with CCRF-CEM leukemia; 3.4 µM in the assay with ACHN renal; 3.76 µM with MDA-MB-231 breast. Besides, the TGI in the assay with NCI/ADR-RES ovarian stood at 4 µM; in the assay with HCT-15 colon it was 3.69 µM; in the assay on SF-295 CNS, 3.01 µM; in the assay on HOP-92 NSCLC it was 3.55 µM.
Regarding `CC(=O)Oc1ccc(C2=Cc3ccc(OC(C)=O)cc3OC2C)cc1` (centres undefined), the GI50 was 3.27 µM with DU-145 prostate; 4.91 µM with U251 CNS; 3.58 µM with NCI-H522 lung; 525 nM in the assay on CCRF-CEM leukemia; 2.29 µM in the assay with ACHN renal; 5.06 µM in the assay with MDA-MB-231 breast. Moreover, the GI50 is 3.57 µM with NCI/ADR-RES ovarian, 5.07 µM with HCT-15 colon, 2000 nM with SF-295 CNS and 6.74 µM with HOP-92 NSCLC. Moreover, the TGI with DU-145 prostate was 13.9 µM; in the assay on U251 CNS, 79.9 µM; in the assay with NCI-H522 lung, 23.1 µM; in the assay with CCRF-CEM leukemia, 22.5 µM; in the assay on ACHN renal it was more than 100 µM; with MDA-MB-231 breast, 63.7 µM. For the same compound, the TGI was 73.1 µM in the assay on NCI/ADR-RES ovarian, 26.1 µM with HCT-15 colon, 4.25 µM in the assay on SF-295 CNS and more than 100 µM with HOP-92 NSCLC.
Turning to `S=C1SCN(Cc2ccccc2)CN1Cc1ccco1`, the GI50 in the assay on DU-145 prostate is 2.85 µM; in the assay with U251 CNS, 21.3 µM; in the assay with NCI-H522 lung, 2.59 µM; in the assay on CCRF-CEM leukemia, 2750 nM; in the assay with ACHN renal it was 4.97 µM; with MDA-MB-231 breast it was 3.17 µM. The GI50 was 17.9 µM in the assay on NCI/ADR-RES ovarian, 2.95 µM in the assay on HCT-15 colon, more than 100000 nM in the assay on SF-295 CNS and 2.4 µM with HOP-92 NSCLC. The TGI with DU-145 prostate turned out to be 9.61 µM; with U251 CNS, 68.3 µM; in the assay on NCI-H522 lung it was 9.92 µM; in the assay on CCRF-CEM leukemia, 18.5 µM; in the assay on ACHN renal, 17.3 µM; with MDA-MB-231 breast, 12.3 µM. Also, the TGI is more than 100 µM in the assay with NCI/ADR-RES ovarian, 14.4 µM with HCT-15 colon, more than 100 µM in the assay with SF-295 CNS and 10.9 µM in the assay with HOP-92 NSCLC.
`CN(C)c1ccc(-c2cc(-c3ccc(Nc4nc(Nc5ccc(Cl)cc5)nc(Nc5ccc(Cl)cc5)n4)cc3)nc(N)c2C#N)cc1`: the GI50 was 34.6 µM with DU-145 prostate; 10.7 µM in the assay on U251 CNS; 48.4 µM with NCI-H522 lung; 2590 nM in the assay on CCRF-CEM leukemia; 13.1 µM with ACHN renal; 5.51 µM in the assay on MDA-MB-231 breast. For the same compound, the GI50 is more than 100 µM in the assay on NCI/ADR-RES ovarian, 3.7 µM in the assay on HCT-15 colon and 13900 nM in the assay with SF-295 CNS. The TGI is more than 100 µM in the assay with DU-145 prostate; more than 100 µM in the assay with U251 CNS; more than 100 µM with NCI-H522 lung; 36.5 µM in the assay on CCRF-CEM leukemia; more than 100 µM in the assay on ACHN renal; 60.3 µM with MDA-MB-231 breast. The TGI with NCI/ADR-RES ovarian was more than 100 µM; in the assay with HCT-15 colon, more than 100 µM; in the assay with SF-295 CNS, more than 100 µM; in the assay with HOP-92 NSCLC, 2.93 µM.
Take `Cn1c(=O)c2nc3sc4c(n3c2n(C)c1=O)C(=O)c1ccccc1C4=O`: the TGI in the assay on DU-145 prostate is more than 100 µM; in the assay with U251 CNS, more than 57.5 µM; with NCI-H522 lung, 27.9 µM; in the assay with CCRF-CEM leukemia, more than 50.3 µM; in the assay on ACHN renal, more than 54.7 µM; in the assay on MDA-MB-231 breast, more than 64.6 µM. The TGI with NCI/ADR-RES ovarian was 87.3 µM; in the assay with HCT-15 colon it was more than 86.5 µM; with SF-295 CNS it was more than 100 µM; with HOP-92 NSCLC, more than 42.7 µM.
In the case of `COc1ccc(/C=C2\CCC/C(=C\c3ccc(OC)c(OC)c3)C2=O)cc1OC`, the GI50 with DU-145 prostate is 1.28 µM; in the assay with U251 CNS, 1.4 µM; in the assay on NCI-H522 lung, 2.19 µM; in the assay with CCRF-CEM leukemia it was 1490 nM; in the assay on ACHN renal, 5.04 µM; in the assay with MDA-MB-231 breast, 10.5 µM. The GI50 was 1.18 µM in the assay on NCI/ADR-RES ovarian, 4.96 µM in the assay with HCT-15 colon, 1400 nM with SF-295 CNS and 11.3 µM in the assay on HOP-92 NSCLC. Also, the TGI in the assay on DU-145 prostate was 9.89 µM; in the assay with U251 CNS it was more than 32.5 µM; in the assay on NCI-H522 lung, 15.4 µM; in the assay on CCRF-CEM leukemia, more than 32.5 µM; in the assay on ACHN renal, more than 32.5 µM; with MDA-MB-231 breast it was more than 32.5 µM. Further, the TGI in the assay with NCI/ADR-RES ovarian was 17.5 µM; with HCT-15 colon, more than 32.5 µM; in the assay on SF-295 CNS, 21.3 µM; with HOP-92 NSCLC it was more than 32.5 µM.
